Assay results: patent US11160865B2, “Liquid pharmaceutical composition for the delivery of active ingredients” (NOVALIQ GMBH, priority 2010, dated 2021)
Several values for one entry are separate records, joined by “and”; a condition that tells them apart may be missing. Equal values may be shown once. Entries after “also recorded” stand apart in the source; their conditions may differ. Read-outs that look alike come from different tables or passages of the source.

How the values were obtained:
rabbit eyes (cornea) [1] = assay: Ex-vivo eye irritation test (EVEIT), healing of corneal abrasion lesions; conditions: for Final size of corneal lesions: Example 2, after 3 days of hourly dosing 12 h/day, runs are replicates; for starting area of corneal lesions: Example 3; for outcome of corneal lesions: Example 3, after 2 or 3 days of exposure
Procedure: (§1) The physiological tolerability of F4H5 and of a mixture of 1 wt.-% ethanol in F4H5 was evaluated in an ex-vivo eye irritation test (EVEIT) using rabbit eyes taken from freshly sacrificed animals. The eyes were fastened in chambers coupled micropump systems which continuously supplied the eyes with cultivation medium (Minimal Essential Medium, MEM T031-05) without fetal calf serum. The vitality of the eyes was monitored by regularly measuring the concentration of lactate and glucose in the chamber eluate. The corneal surface of the eyes was damaged by abrasion, using a dental ceramic abrasive (638XF, Meisinger). For each eye, four lesions of 3.0 to 4.5 mm^2 were prepared.
(§2) To evaluate the effect of F4H5 and F4H5 with 1 wt.-% ethanol on the cornea, an amount of approx. 0.25 to 0.50 μl of the respective test substance was dropped onto the centre of a cornea once every hour over a period of 12 hours, followed by a 12 hour resting period in which the cornea was submersed in culture medium to simulate a closed lid during a night phase. […] Each test was performed over a period of 3 days. The effects were observed by optical coherence tomography (OCT), by digitally determining the dimensions of the lesions after staining with fluorescein, and finally by a histological evaluation of the corneal epithelium and endothelium at the end of each experiment.
(§3) Again, minimal essential medium (MEM) was included as negative control, benzalkonium chloride solution (0.01%) as positive control, and hyaluronic acid solution (0.1%) as a reference.

rabbit eyes (cornea) [2] = system: rabbit eyes (cornea)
Procedure: as §1, §2, §3

[3] = Example 3, within 3 days, first set of experiments

For `CCCCCC(F)(F)C(F)(F)C(F)(F)C(F)(F)F` [F4H5, 1-perfluorobutylpentane], the “effect on healing of abraded corneal lesions” value (“effect on healing” below) (rabbit eyes (cornea) [1]; Example 2) was “positive effect on the healing of damaged cornea similar to that of hyaluronic acid; also recorded: Substantial healing”, the “morphological and histological evaluation of cornea at end of test” value (rabbit eyes (cornea) [1]; Example 2) was “healed very well” and the “penetration into the cornea by OCT imaging” value (rabbit eyes (cornea) [1]; Example 2) was “no indication of penetration”. For the same compound, the “physiological tolerability” value (rabbit eyes (cornea) [1]; Example 2) was “better tolerated than culture medium” and the “Final size of corneal lesions” value (rabbit eyes (cornea) [1]) was 0.19 mm^2 and 1.01 mm^2 and 0.06 mm^2.

With `CCCCCCCCC(F)(F)C(F)(F)C(F)(F)C(F)(F)C(F)(F)C(F)(F)F` [F6H8, 1-perfluorohexyloctane] the “outcome of corneal lesions” value (rabbit eyes (cornea) [2]) was “complete remission” and the “starting area of corneal lesions” value (rabbit eyes (cornea) [2]) was 10.54-16.65 mm^2.

With benzalkonium chloride [BAC] the “effect on healing” value (rabbit eyes (cornea) [1]; Example 2) was “rapid growth of the lesions”, the “morphological and histological evaluation of cornea at end of test” value (rabbit eyes (cornea) [1]; Example 2) was “complete disintegration of the corneal epithelium” and the “starting area of corneal lesions” value (rabbit eyes (cornea) [1]) was 11.23 mm^2. For the same compound, the “outcome of corneal lesions” value (rabbit eyes (cornea) [1]) was “complete epithelial loss”.

hyaluronic acid [HA] was tested, and the “effect on healing” value (rabbit eyes (cornea) [1]; Example 2) was “Substantial healing”, the “morphological and histological evaluation of cornea at end of test” value (rabbit eyes (cornea) [1]; Example 2) was “healed very well” and the “Final size of corneal lesions” value (rabbit eyes (cornea) [1]) was 0.36 mm^2 and 0.24 mm^2 and 0.00 mm^2. For the same compound, the “starting area of corneal lesions” value (rabbit eyes (cornea) [1]) was 12.16 mm^2, the “outcome of corneal lesions” value (rabbit eyes (cornea) [1]) was “complete healing” and the “area of corneal damage after treatment” value (rabbit eyes (cornea) [1]; [3]) was 0.32 mm^2. For the same compound, the “reduction of area of corneal damage” value (rabbit eyes (cornea) [1]; [3]) was 97.4%.
